For three molecules, IC50 and LD50 results are on record in US4464396A, “4-[N-(Hydroxybenzyl)aminomethyl]cyclohexane-1-carboxylic acid” (Kureha Kagaku Kogyo Kabushiki Kaisha, priority 1981, dated 1984).

A value given as a limit tells only on which side of the number the result lay.

Series [1] relates to Rat's polynuclear leukocyte migration. As to the kind of experiment: Inhibitory effect on polynuclear leukocyte migration (Boyden method). The class given is cell-based. As to conditions: rat polynuclear leukocytes, read-out: Concentration of 50% inhibition of polynuclear leukocyte migration IC50. The text has this:
(1) Examination for inhibitory effect on polynuclear leukocyte migration:
Rat's polynuclear leukocyte migration was examined by the Boyden method.

Series [2] in a line: Acute toxicity, peroral administration of aqueous solution to mice. Conditions: mouse, in vivo, po, female JCL-ICR mice 5 to 6 weeks old. The source says:
(2) Examination for acute toxicity:
Acute toxicity was examined by administering perorally an aqueous solution of each Specimen to female JCL-ICR mice 5 to 6 weeks after their birth.

For the molecule `COc1ccc2c(c1)c(CC(=O)O)c(C)n2C(=O)c1ccc(Cl)cc1` [III], the IC50 in series [1] is 240 µM.

Consider `O=C(O)[C@H]1CC[C@H](CNCc2ccc(O)c(O)c2)CC1` [II], for which the IC50 in series [1] was found to be 32 µM. Besides, the 50% lethal dose (LD50) (usually the dose expected to kill half of the subjects tested) in series [2] is > 3000 mg/kg.

Regarding `O=C(O)[C@H]1CC[C@H](CNCc2ccccc2O)CC1` [I], in series [1], the IC50 came out at 340 µM. For the same molecule, the LD50 in series [2] was > 3000 mg/kg.
